Series [1] is described as follows: Form change (stability) study of slurried solids by XRPD. The conditions noted are these: slurried in either propylene glycol or ethanol, FIG. 5. The series is classed as physicochemical. The method, then: (§1) The solubility of Compound (1), as either Type A or the sodium salt form, was investigated in various non-aqueous solvents. The solutions were prepared by addition of excess Compound (1) to 0.25 ml to 1.0 ml of excipient in amber screw cap vials with Teflon lined caps. The samples were allowed to rotate at room temperature for up to 4 days. Sampling was done by centrifuging (14,000 rpm on the Eppendorf model 5415C table top centrifuge) and filtering through a 0.45 μm PVDF filter. The filtrate was subject to HPLC analysis for determining the solubility. HPLC analysis was conducted with an Agilent 1100 using gradient or isocratic conditions. Both methods used acetonitrile/water (each with 0.1% Trifluroacetic Acid) and an ACE C-18 stationary phase with column heating maintained at 40-45° C. The wavelength of detection was set at 220 nm or 264 nm. Wet solids were collected and analyzed for form change (stability) by XRPD.
XRPD analyses for the form change studies were conducted on a Bruker AXS X-Ray Powder Diffractometer Model D8 Discover or D8 Advance, available from Bruker AXS, Inc. of Madison, Wis., using CuKα radiation. The tube power was set to either 40 kV and 40 mA or 40 kV and 30 mA. […]

Series [2] is described as follows: Solubility in non-aqueous excipients (excess solid, HPLC of filtrate). In kind it is physicochemical. The conditions noted are these: room temperature, rotated up to 4 days; for solubility: thermodynamic from solid; for Solubility in Ethanol: excipient Ethanol; for Solubility in Transcutol P: excipient Transcutol P. The method, then:
as §1

Another series deals with HCV infection. The experiment in a line: Human clinical trials in HCV-infected patients. In kind it is in vivo.
For a further series, the target named is HCV NS3 serine protease (Hepatitis C virus genotype 1a, UniProt P27958). Conditions: cited from earlier work.

Consider three compounds from US8232293B2, “Crystalline forms of a potent HCV inhibitor” (Boehringer Ingelheim International GmbH, priority 2008, dated 2012).

Each structure is given as a SMILES string. ≈ marks a conversion by molar mass, not a printed value. Structures can show the parent of a compound that is named as a salt. Where two headings read alike, the source gives them in different places.

Sequence of HCV NS3 serine protease (P27958 1658-1711): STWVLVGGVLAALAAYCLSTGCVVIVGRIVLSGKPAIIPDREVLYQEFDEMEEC
Sequence of HCV NS3 serine protease (P27958 1027-1657): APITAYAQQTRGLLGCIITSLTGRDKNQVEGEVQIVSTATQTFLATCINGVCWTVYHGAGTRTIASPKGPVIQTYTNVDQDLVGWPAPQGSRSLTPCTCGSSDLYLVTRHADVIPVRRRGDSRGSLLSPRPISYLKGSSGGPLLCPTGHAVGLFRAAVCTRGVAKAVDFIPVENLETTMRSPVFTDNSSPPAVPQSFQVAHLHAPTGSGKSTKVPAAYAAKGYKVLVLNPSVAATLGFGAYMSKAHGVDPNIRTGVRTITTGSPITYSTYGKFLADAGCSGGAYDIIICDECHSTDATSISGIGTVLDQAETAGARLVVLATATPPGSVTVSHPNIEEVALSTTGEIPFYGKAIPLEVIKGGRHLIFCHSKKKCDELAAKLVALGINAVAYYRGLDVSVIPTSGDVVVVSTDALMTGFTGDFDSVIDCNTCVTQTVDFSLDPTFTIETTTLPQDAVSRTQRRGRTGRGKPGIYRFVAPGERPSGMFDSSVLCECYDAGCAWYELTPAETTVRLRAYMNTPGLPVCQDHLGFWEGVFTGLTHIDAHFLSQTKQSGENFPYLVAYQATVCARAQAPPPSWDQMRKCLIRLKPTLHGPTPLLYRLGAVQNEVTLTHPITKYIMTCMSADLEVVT

Regarding `C=C[C@@H]1C[C@]1(NC(=O)[C@@H]1C[C@@H](Oc2cc(-c3csc(NC(=O)C(C)C)n3)nc3c(Br)c(OC)ccc23)CN1C(=O)[C@@H](NC(=O)OC1CCCC1)C(C)(C)C)C(=O)O` [Compound (1) Na salt], in series [1] (listed as crystalline sodium salt form of Compound (1)), the “Form stability (change in XRPD pattern of remaining solid)” value was “no change in the XRPD pattern”. For the same compound, the solubility was 262.5 ± 2.6 mg/mL in series [2] (Capmul MCM (non-aqueous excipient), oil or lipid, excipient Capmul MCM, read-out: Solubility in Capmul MCM); less than 169 mg/mL in series [2] (Capmul PG8 (non-aqueous excipient), oil or lipid, excipient Capmul PG8, read-out: Solubility in Capmul PG8); 175 ± 11.8 mg/mL in series [2] (Labrasol (non-aqueous excipient), oil or lipid, excipient Labrasol, read-out: Solubility in Labrasol); 234 ± 34 mg/mL in series [2] (PEG 400 (non-aqueous excipient), organic solvent or mixture, excipient PEG 400, read-out: Solubility in PEG 400); more than 468 mg/mL in series [2] (Propylene Glycol (non-aqueous excipient), organic solvent or mixture, excipient Propylene Glycol, read-out: Solubility in Propylene Glycol). The “Solubility in Ethanol” value in series [2] is 187.0 ± 23.9 mg/mL. Besides, the “Solubility in Transcutol P” value in series [2] came out at 430.6 ± 14.7 mg/mL. The “Effectiveness in treating HCV-infected patients” value in the series on HCV infection was “demonstrated effectiveness”.

With `C=C[C@@H]1C[C@]1(NC(=O)[C@@H]1C[C@@H](Oc2cc(-c3csc(NC(=O)C(C)C)n3)nc3c(Br)c(OC)ccc23)CN1C(=O)[C@@H](NC(=O)OC1CCCC1)C(C)(C)C)C(=O)O` [Compound (1)], the “Inhibitory activity against HCV NS3 serine protease” value at HCV NS3 serine protease is “selective and potent inhibitor”.

On to `C=C[C@@H]1C[C@]1(NC(=O)[C@@H]1C[C@@H](Oc2cc(-c3csc(NC(=O)C(C)C)n3)nc3c(Br)c(OC)ccc23)CN1C(=O)[C@@H](NC(=O)OC1CCCC1)C(C)(C)C)C(=O)O` [Type A of Compound (1)], for which the “Form stability (change in XRPD pattern of remaining solid)” value in series [1] (listed as Type A form of Compound (1)) was “clear form change”. Moreover, the “Solubility in Capmul MCM” value in series [2] (excipient Capmul MCM) worked out at 220.6 ± 7.4 mg/mL (≈ 254 mM). The “Solubility in Capmul PG8” value in series [2] (excipient Capmul PG8) is given as 172.6 ± 8.3 mg/mL (≈ 198 mM). In series [2], the “Solubility in Ethanol” value stood at 0.9 ± 0.1 mg/mL (≈ 1.03 mM) and the “Solubility in Transcutol P” value is listed as 24.3 ± 0.3 mg/mL (≈ 27.9 mM). In series [2] (excipient Labrasol), the “Solubility in Labrasol” value was determined as 146.7 ± 5.1 mg/mL (≈ 169 mM). The “Solubility in PEG 400” value in series [2] (excipient PEG 400) was 136.8 ± 3.2 mg/mL (≈ 157 mM).

Usually solubility stands for how much of the substance goes into solution per volume.
